We go through 22 compounds from PMC12794186, “Covalent Alkynylpyridopyrimidinones Targeting Cysteine 775 of the Epidermal Growth Factor Receptor Overcome Resistance to Current Therapies” (Journal of Medicinal Chemistry, 2025).

Structures are written as SMILES. Read-outs that look alike come from different tables or passages of the source.

In assay [1] the target is T1, wild-type EGFR (WT-EGFR) (Homo sapiens, UniProt P00533).
T1 construct: made in house; host or cells: SF9 insect cells (MultiBac)
The assay is described as follows: TR-FRET fluorescent probe displacement assay. The assay is classed as binding. The protocol: Compounds (dissolved to 100 mM in DMSO) were dispensed into black low volume 384 well assay plates (Corning) over a final concentration range of 100,000, 30,000, 10,000, 3000, 1000, 300, 100, 30, 10, and 3 nM using an Echo 550 (Labcyte). Positive control compound and DMSO as a negative control were dispensed into the first and last well, respectively. Each well was backfilled with DMSO to a final volume of 200 nL, resulting in final assay DMSO concentrations of 1%. […] The data were analyzed using Graphpad Prism/Dotmatics Studies Software. Assays conducted in technical replicate and repeated as a biological duplicate.
(In general: TR-FRET usually uses a lanthanide donor and a delayed reading to cut background.)

The target in assay [2] is mLTC-EGFR (Homo sapiens, UniProt P00533, C797S/L858R/T790M). Description: Intact protein mass spectrometry, covalent adduct formation. The format is binding. As to conditions: for covalent adduct formation, in words: intact protein mass spectrometry; for Protein adduct formation: adduct stoichiometry by intact protein mass spectrometry.
Assay [3] has as its system EGFR phosphorylation (Tyr1068) in H1975 (L858R, T790M) cells. Description: HTRF cellular EGFR phosphorylation. The format is cell-based. The following applies: Homo sapiens, NCI-H1975; read-out: pEGFR IC50 by HTRF. The protocol: Cells were plated at 20,000 cells per well in 96-well plates and placed at 37 °C with 5% CO2. Compounds were reconstituted in DMSO. Once adhered (after 24 h), cells were treated with compounds at a final concentration of 0.1% DMSO in media. Compounds were added to duplicate wells and incubated 37 °C for 3 h with 5% CO2. For A431 cells 0.5 h before the end of incubation; 100 ng/mL of EGF (Thermo Fisher, Cat. No. PHG0311) was added to all compound-treated cells as well as control. Compound and media were removed from the cells, and then 50 μL of HTRF lysis buffer was added (lysis buffer was diluted from 4× stock to 1× in deionized (DI) water, with 1% blocking agent also added). Cells were lysed on a plate shaker (2000 rpm) for 30 min at room temperature. pEGFR expression was assessed using the Human Phospho-EGFR (Tyr1068) cellular detection kit (Revvity, Cat. No. 64EG1PEH). Total EGFR expression was monitored using the Human Total EGFR cellular detection kit (Revvity, Cat. No. 64NG1PEH) as per the manufacturer’s instructions. […] Results were calculated as the ratio of pEGFR/total EGFR and then the percentage of 0 μM control.

The test system is the same in assay [4]. The assay is described as follows: Western blot of EGFR phosphorylation. The format is cell-based.
Experimental: Cells, seeded on the previous day, were incubated with test compound at the indicated concentrations or DMSO (0.1%) for 4 h. […] Preparation of lysates and Western blotting was performed twice as independent experiments.
Samples were prepared by diluting lysates in PBS to the desired concentration and before adding 4X XT sample buffer. Samples were then denatured at 98 °C for 5 min and then centrifuged to remove the residue. […] The quality of transfer was assessed using Ponceau S Stain (Sigma-Aldrich Cat. No. p7170).
Loading control antibodies were prepared in 5% milk w/v with 1× TBS/T (0.1 v/v) solution at a determined optimum concentration.
Proteins were detected using Clarity ECL substrate (Bio-Rad) and imaged using a Licor Odyssey FC.
For assay [5], the system named is EGFR. Description: Time-course of EGFR modification by mass spectrometry. As to conditions: within 10 min. The assay is classed as binding. The protocol: Peptides were detected in positive ion mode using electrospray ionization with nebulizer pressure of 35 psi, drying gas flow of 13 L/min and source gas temperature of 290 °C. Sheath gas temperature of 275 °C and gas flow of 12 L/min, capillary voltage of 4000 V and nozzle voltage of 300 V were also applied. Mass spectra were acquired using MassHunter Acquisition software (version B.08.00) over 100–1700 m/z range, at a rate of 5 spectra/s and 200 ms/spectrum, using standard mass range mode (3200 m/z) with extended dynamic range (2 GHz) and collection of both centroid and profile data. MS/MS fragmentation spectra were acquired over 100–3000 m/z range, at a rate of 3 spectra/s and 333.3 ms/spectrum. Acquired MS and MS/MS spectra were analyzed using Agilent MassHunter BioConfirm software (version B.10.00) against known amino acid sequences for EGFR for confirmation of covalent binding at Cys775. For the time course study, 150 μL EGFR (0.15 mg/mL) was incubated with compound 25328 to final concentration of 15 μM in a buffer solution of 20 mM Tris pH 8, 150 mM NaCl, 4% glycerol, 1 mM TCEP, 1% DMSO. […] Intact protein analysis perform as detailed above.

In assay [6] the target is recombinant doubly mutated EGFR L858R, T790M kinase domain (mLT-EGFR) (Homo sapiens, UniProt P00533, L858R/T790M). Description: Kinetic analysis (AssayQuant). As to conditions: for Ki: read-out: KI app. The format is biochemical. How it is done: Measurement of K I, K inact and K inact/K I was carried out by AssayQuant Technologies inc.
Assay [7] relates to BAF EGFR L858R cells. As to conditions: BAF EGFR cell line; published compound, reference number not given; cited from earlier work.
The subject of assay [8] is BAF EGFR L858R/C775S cells. As to conditions: BAF EGFR cell line; published compound, reference number not given; cited from earlier work.
The mark [9] stands for this setting: TR-FRET, read-out: WT-EGFR IC50.
Setting [10] is: supplementary csv, read-out: WT pIC50 (converted).
The mark [11] stands for this setting: TR-FRET, n > 3, read-out: WT-EGFR IC50.
The mark [12] stands for this setting: TR-FRET, n > 3, read-out: WT-EGFR pIC50 ± std dev (converted).

`C#Cc1cc(-c2cnn3ccccc23)nc(Nc2ccccc2)n1` [Compound 2, 4-Ethynyl-N-phenyl-6-(pyrazolo[1,5-a]pyridin-3-yl)pyrimidin-2-amine]: the results for the IC50 in assay [1] (setting [9]) and in assay [1] (setting [10]) were 48 ± 16 µM and 50.1 µM, respectively. For the same compound, the “covalent adduct formation, in words” value in assay [2] is “addition of a single adduct by mass spectrometry and a small amount of double adduct”.

Turning to `C#Cc1cc(=O)n(-c2ccccc2)c2nc(Nc3ccccc3OC)ncc12` [Compound 3, 5-Ethynyl-2-[(2-methoxyphenyl)amino]-8-phenylpyrido[2,3-d]pyrimidin-7-one], in assay [3], the IC50 was over 3 µM. Further, the “inhibition of pEGFR (Western blot)” value in assay [4] (H1975, 10 μM, 4 h) is listed as “showed inhibition of pEGFR”. Moreover, in assay [5], the protein modified result was “Over 50%”.

Turning to `C#Cc1cc(=O)n(-c2ccccc2)c2nc(Nc3ccc(N4CCOCC4)cc3OC)ncc12` [Compound 5, 5-Ethynyl-2-((2-methoxy-4-morpholinophenyl)amino)-8-phenylpyrido[2,3-d]pyrimidin-7(8H)-one], the IC50 was 0.057 µM in assay [1] (setting [11]) and 0.0631 µM in assay [1] (setting [12]).

By kinact is commonly meant the maximal first-order rate at which the target is inactivated. As usually defined, the kinact/KI is the maximal inactivation rate divided by the concentration that gives half of it. As to `C#Cc1cc(=O)n(-c2ccccc2)c2nc(Nc3ccc(N4CCOCC4)cc3)ncc12` [Compound 6, 5-Ethynyl-2-((4-morpholinophenyl)amino)-8-phenylpyrido[2,3-d]pyrimidin-7(8H)-one], the IC50 in assay [1] (setting [11]) stood at 0.069 µM. In addition, the IC50 in assay [1] (setting [12]) is 0.0631 µM. Further, in assay [6], the maximal inactivation rate constant (kinact) came to 0.0061 ± 0.00035 s⁻¹, the second-order inactivation constant (kinact/KI) came to 3.7e+08 ± 3.8e+06 M⁻¹ s⁻¹ and the Ki is 0.016 ± 0.0011 µM.

Turning to `C#Cc1cc(=O)n(-c2ccccc2)c2nc(Nc3ccc(N4CCN(C)CC4)cc3OC)ncc12` [Compound 8, 5-Ethynyl-2-(2-methoxy-4-(4-methylpiperazine-1-ylphenyl)amino)-8-phenylpyrido[2,3-d]pyrimidin-7(8H)-one], the IC50 in assay [1] (setting [11]), in assay [1] (setting [12]) and in assay [1] (setting [10]) was 0.1 µM throughout.

Consider `C#Cc1cc(=O)n(-c2ccccc2)c2nc(Nc3ccc(N4CCN(C)CC4)cc3)ncc12` [Compound 9, 5-Ethynyl-2-((4-(4-methylpiperazin-1-yl)phenyl)amino)-8-phenylpyrido[2,3-d]pyrimidin-7(8H)-one], for which the IC50 in assay [1] (setting [11]) amounted to 0.077 µM. The IC50 in assay [1] (setting [12]) was 0.0794 µM. For the same compound, in assay [6], the inactivation rate constant (kinact) is 0.02 ± 0.0041 s⁻¹, the inactivation efficiency (kinact/KI) was 8.2e+08 ± 8.3e+06 M⁻¹ s⁻¹ and the Ki came to 0.024 ± 0.0052 µM.

`C#Cc1cc(=O)n(-c2ccccc2)c2nc(Nc3ccc(N(C)C(=O)COC)cc3OC)ncc12` [Compound 10, N-(4-((5-Ethynyl-7-oxo-8-phenyl-7,8-dihydropyrido[2,3-d]pyrimidin-2-yl)amino)-3-methoxyphenyl)-2-methoxy-N-methylacetamide]: the IC50 in assay [1] (setting [11]) turned out to be 3.3 µM. In assay [1] (setting [12]), the IC50 was 3.16 µM. In assay [6], the kinact came to 0.0035 ± 0.00072 s⁻¹, the kinact/KI was 1.8e+07 ± 480000 M⁻¹ s⁻¹ and the Ki amounted to 0.2 ± 0.045 µM.

Regarding `C#Cc1cc(=O)n(-c2ccccc2)c2nc(Nc3ccc(N(C)C(=O)CCOC)cc3OC)ncc12` [Compound 11, N-(4-((5-Ethynyl-7-oxo-8-phenyl-7,8-dihydropyrido[2,3-d]pyrimidin-2-yl)amino)-3-methoxyphenyl)-3-methoxy-N-methylpropanamide], the results for the IC50 in assay [1] (setting [11]) and in assay [1] (setting [12]) were 4.1 µM and 3.16 µM, respectively.

On to `C#Cc1cc(=O)n(-c2ccccc2)c2nc(Nc3ccc(N(C)C(=O)CN(C)C)cc3OC)ncc12` [Compound 12, 2-(Dimethylamino)-N-(4-((5-ethynyl-7-oxo-8-phenyl-7,8-dihydropyrido[2,3-d]pyrimidin-2-yl)amino)-3-methoxyphenyl)-N-methylacetamide], for which the IC50 in assay [1] (setting [11]) was found to be 5.1 µM. In addition, the IC50 in assay [1] (setting [12]) is 5.01 µM. Moreover, in assay [6], the kinact was 0.0051 ± 0.00061 s⁻¹, the kinact/KI came to 3.3e+07 ± 440000 M⁻¹ s⁻¹ and the Ki came out at 0.16 ± 0.02 µM.

In assay [2], `C=CC(=O)Nc1cccc(-c2nn(C)c3ncnc(N)c23)c1` [Compound S1] gave a Protein adduct formation of 1.

On to `C#CC(=O)Nc1cccc(-c2nn(C)c3ncnc(N)c23)c1` [Compound S2], for which the Protein adduct formation in assay [2] is reported as 1-3.

Regarding `C=CC(=O)NCc1cccc(-c2nn(C)c3ncnc(N)c23)c1` [Compound S3], the Protein adduct formation in assay [2] stood at 0.

In assay [2], `C=CC(=O)NCc1cc(=O)n(-c2ccccc2)c2nc(Nc3ccccc3OC)ncc12` [Compound S4] registered a Protein adduct formation of 0.

As to `C#CC(=O)NCc1cc(=O)n(-c2ccccc2)c2nc(Nc3ccccc3OC)ncc12` [Compound S5], in assay [2], the Protein adduct formation is reported as 1-2.

`C=CC(=O)NCCOc1ccc(-c2nn(C)c3ncnc(N)c23)cc1` [Compound S7]: in assay [2], the Protein adduct formation turned out to be 0.

Turning to `C=CC(=O)Nc1ccccc1Oc1ccc(-c2nn(C)c3ncnc(N)c23)cc1` [Compound S8], in assay [2], the Protein adduct formation is reported as 0-1.

As for `C#CC(=O)Nc1ccccc1Oc1ccc(-c2nn(C)c3ncnc(N)c23)cc1` [Compound S9], the Protein adduct formation in assay [2] was 1-4.

Turning to `COc1ccccc1Nc1ncc2ccc(=O)n(-c3ccccc3)c2n1` [Compound S10], the IC50 is 15.8 µM in assay [1] (setting [12]) and 15 µM in assay [1] (setting [9]).

Consider `C=Cc1cc(=O)n(-c2ccccc2)c2nc(Nc3ccccc3OC)ncc12` [Compound S11], for which the IC50 in assay [1] (setting [12]) and in assay [1] (setting [9]) was over 100 µM in each case. In addition, in assay [2], the “covalent adduct formation, in words” value is “reduced protein modulation”.

As to `CC#Cc1cc(=O)n(-c2ccccc2)c2nc(Nc3ccccc3OC)ncc12` [Compound S12], the IC50 in assay [1] (setting [12]) and in assay [1] (setting [9]) was over 100 µM in each case. The “covalent adduct formation, in words” value in assay [2] is “little to no modification”.

By GI50 is commonly meant the concentration at which growth is held to half of that of the control. With `C=CC(=O)Nc1cc(C(=O)Nc2nc3cccc(Cl)c3n2[C@@H]2CCCCN(C(=O)C=C)C2)cs1` [dual C775–C797 inhibitor], the concentration for 50% growth inhibition (GI50) was 0.01 µM in assay [7] and 0.02 µM in assay [8].

Turning to `C=CC(=O)Nc1cc(Nc2nccc(-c3cn(C)c4ccccc34)n2)c(OC)cc1N(C)CCN(C)C` [osimertinib, reference compound], in assay [4] (H1975, 4 h exposure, concentration series), the “inhibition of EGFR and ERK1/2 phosphorylation (Western blot)” value was “inhibition of EGFR and ERK1/2 phosphorylation was evident”.
